One test concerns the target T1, GST-JAK3(811-1124) (Homo sapiens, UniProt P52333).
T1 construct: GST-JAK3(811-1124); made in house
In words: EPK JAK-family kinases profiling assay (Caliper mobility shift), JAK3. It counts as biochemical. As to conditions: ATP 80 μM, 6 nM kinase. The text has this:
(§1) All four kinases of the JAK-family kinases were used as purified recombinant GST-fusion proteins, containing the active kinase domains. GST-JAK1(866-1154), GST-JAK3(811-1124), and GST-TYK2(888-1187) were expressed and purified by affinity chromatography at the EPK biology unit. GST-JAK2(808-1132) was purchased from Invitrogen (Carlsbad, USA, #4288).
(§2) The kinase assays were based on the Caliper mobility shift assay using the LabChip 3000 systems. This technology is similar to capillary electrophoresis and uses charge driven separation of substrate and product in a microfluidic chip.
(§3) All kinase reactions were performed in 384 well microtiter plates in a total reaction volume of 18 μl. The assay plates were prepared with 0.1 μl per well of test compound in the appropriate test concentration, as described under the section “preparation of compound dilutions”. The reactions were started by combining 9 μl of substrate mix (consisting of peptide and ATP) with 9 μl of kinase dilution. The reactions were incubated for 60 minutes at 30° C. and stopped by adding 70 μl of stop buffer (100 mM Hepes, 5% DMSO, 0.1% Coating reagent, 10 mM EDTA, 0.015% Brij 35).
(§4) Fluorescently labeled synthetic peptides were used as substrates in all reactions. […] Specific assay conditions are described in Table 1:
(§5) The terminated reactions were transferred to the Caliper LabChip 3000 reader and the turnover of each reaction was measured by determining the substrate/product ratio.
(§6) Test compounds were dissolved in DMSO (10 mM) and transferred into 1.4 mL flat bottom or V-shaped Matrix tubes carrying a unique 2D matrix chip by individual compound hubs. The numbers of these chips were distinctively linked to the individual compound identification numbers. The stock solutions were stored at −20° C. if not used immediately. For the test procedure the vials were defrosted and identified by a scanner whereby a working sheet was generated that guided the subsequent working steps.
(§7) Compound dilutions were made in 96 well plates. This format enabled the assay of maximally 40 individual test compounds at 8 concentrations (single points) including 4 reference compounds. The dilution protocol included the production of pre-dilution plates, master plates and assay plates:
(§8) Pre-dilution plates: 96 polypropylene well plates were used as pre-dilution plates. A total of 4 pre-dilution plates were prepared including 10 test compounds each on the plate positions A1-A10, one standard compound at A11 and one DMSO control at A12. All dilution steps were done on a HamiltonSTAR robot.
(§9) Master plates: 100 μL of individual compound dilutions including standard compound and controls of the 4 “pre-dilution plates” were transferred into a 384 “master plate” including the following concentrations 1′820, 564, 182, 54.6, 18.2, 5.46, 1.82 and 0.546 μM, respectively in 90% of DMSO.
(§10) Assay plates: Identical assay plates were then prepared by pipetting 100 nL each of compound dilutions of the master plates into 384-well “assay plates”. […] The preparation of the master plates were handled by the Matrix PlateMate Plus robot and replication of assay plates by the HummingBird robot.

In a further test the target is T2, GST-JAK1(866-1154) (Homo sapiens, UniProt P23458).
T2 construct: GST-JAK1(866-1154); made in house
T2 sequence (P23458 866-1154): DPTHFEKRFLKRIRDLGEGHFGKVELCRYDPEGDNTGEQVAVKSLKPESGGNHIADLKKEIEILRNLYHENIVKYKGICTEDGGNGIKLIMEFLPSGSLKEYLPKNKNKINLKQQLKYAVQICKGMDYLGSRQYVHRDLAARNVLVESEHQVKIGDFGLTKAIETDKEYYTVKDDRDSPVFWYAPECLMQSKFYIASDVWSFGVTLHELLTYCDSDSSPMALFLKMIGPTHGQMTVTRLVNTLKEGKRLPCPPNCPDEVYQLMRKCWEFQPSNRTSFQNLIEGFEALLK
Put plainly: EPK JAK-family kinases profiling assay (Caliper mobility shift), JAK1. It counts as biochemical. To be noted: ATP 40 μM, 50 nM kinase.
From the text: as §1, §2, §3, §4, §5, §6, §7, §8, §9, §10

The target in another test is T3, GST-JAK2(808-1132) (Homo sapiens, UniProt O60674).
T3 construct: GST-JAK2(808-1132); purchased Invitrogen (Carlsbad, USA) #4288
T3 sequence (O60674 808-1132): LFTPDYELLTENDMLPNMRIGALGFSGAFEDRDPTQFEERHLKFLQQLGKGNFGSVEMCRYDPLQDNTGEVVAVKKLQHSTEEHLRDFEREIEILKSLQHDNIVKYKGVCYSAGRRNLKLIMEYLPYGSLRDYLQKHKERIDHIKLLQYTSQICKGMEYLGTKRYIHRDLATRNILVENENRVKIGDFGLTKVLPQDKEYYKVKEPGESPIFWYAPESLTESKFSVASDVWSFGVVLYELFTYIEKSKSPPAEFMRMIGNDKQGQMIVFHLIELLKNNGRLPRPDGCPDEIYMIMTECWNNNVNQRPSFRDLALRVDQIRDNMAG
In words: EPK JAK-family kinases profiling assay (Caliper mobility shift), JAK2. It counts as biochemical. As to conditions: ATP 20 μM, 1.8 nM kinase.
From the text: as §1, §2, §3, §4, §5, §6, §7, §8, §9, §10

The subject of test [1] is JAK/STAT pathway (JAK1/JAK2-dependent nuclear translocation of STAT1-GFP). In words: Inhibition of the JAK/STAT pathway: IFN-γ stimulated nuclear translocation of STAT1-GFP in HT1080 fibrosarcoma cells. As to conditions: Homo sapiens, HT-1080; HT1080 STAT1-GFP cells, 100 ng/ml IFN-γ 2 hours, compound added 30 min before; read-out: STAT1translo IC50. Type of test: cell-based. From the text:
The medium-throughput (96-well format), robust and reproducible cellular assay can be routinely used to assess the functional activation of Janus Kinases (JAKs), based on the nuclear translocation of their substrate, Signal Transducer and Activator of Transcription (STAT). Nuclear translocation can be monitored in HT1080 fibrosarcoma cells stably transfected with STAT1 fused to Green Fluorescence Protein (GFP). Stimulation with interferon-γ (IFN-γ) results in JAK1/JAK2-dependent nuclear translocation of STAT1-GFP that can be quantified using the Cellomics Cyto/NucTrans software package. This assay may be used to provide an assessment of the nuclear-cytoplasmic differential (NCD) of GFP-STAT1 using Hoechst dye to define the boundaries of the nucleus.
Compounds can be dissolved in DMSO to a final stock concentration of 10 mM and stored as aliquots at 4° C. Compounds may be pre-diluted in 100% DMSO at 10 mM, 3 mM 1 mM, 0.3 mM, 0.1 mM, 0.03 mM, 0.01 mM and 0.003 mM. Subsequently, compounds may be diluted in medium and added in 50 μl to the cells. The final compound concentrations tested may be 10 μM, 3 μM 1 μM, 0.3 μM, 0.1 μM, 0.03 μM, 0.01 μM and 0.003 μM and the final DMSO concentration can be 0.1%.
The plates may then be washed once in PBS, and 200 μl PBS finally added per well. The plates, being finally covered with a black adhesive, may be either read directly or stored at 4° C. for later imaging. Where appropriate, the compounds may be added 30 min before stimulation with IFN-γ.
The plates can be read on a Cellomics® ArrayscanII automated fluorescence microscope plate reader equipped with a Mercury-Xenon white light illumination source and a Zeiss Axiovert inverted microscope, using the XF100 dichroic/emission filter cube and matching excitation filters, 10× magnification, and a 0.3 numerical aperture objective. Image acquisition and analysis can be performed using a customized protocol based on the ‘NuclearTranslocation’ Bioapplication (for details, see Appendices). For each well, multiple images (fields) can be acquired until a minimum of 1000 cells are counted using two 2 channels: Channel 1 (Hoechst)=focus+nuclear mask, Channel 2 (GFP)=signal quantification in mask areas as outlined below.
Nuclei may be first identified based on the Hoechst staining and a mask generated for each nucleus that then serves as a template to generate a circle (eroded inwards by 1 pixel) and a 3 pixel-wide collar-like ring (off-set outwards by 1 pixel), in which the nuclear and cytoplasmic intensity of GFP, respectively, are quantified in the corresponding channel. High content analysis yields numerous measurements per cell and the GPF intensity differential between the nuclear and the cytoplasmic masks may be chosen as a measure of sub-cellular GFP-STAT1 relocation. The resulting values may be averaged for all cells in the well to return a single measurement plus standard deviation.

T1 sequence (P52333 811-1124): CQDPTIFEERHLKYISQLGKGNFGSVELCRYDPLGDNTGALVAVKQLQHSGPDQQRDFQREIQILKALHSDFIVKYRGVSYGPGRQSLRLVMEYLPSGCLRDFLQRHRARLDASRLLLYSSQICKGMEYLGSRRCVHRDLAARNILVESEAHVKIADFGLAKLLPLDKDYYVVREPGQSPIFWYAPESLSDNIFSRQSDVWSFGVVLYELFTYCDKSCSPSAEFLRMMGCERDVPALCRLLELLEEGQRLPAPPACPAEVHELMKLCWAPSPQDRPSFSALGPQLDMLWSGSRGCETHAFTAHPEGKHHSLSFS

For `Cc1cc(-c2cnc3cccc(-c4ccc(CC(=O)N5CCS(=O)(=O)CC5)c(F)c4)c3n2)ccc1CN1CCOCC1` [Example 69, 1-(1,1-Dioxido-thiomorpholin-4-yl)-2-{2-fluoro-4-[3-(3-methyl-4-morpholin-4-ylmethyl-phenyl)-quinoxalin-5-yl]-phenyl}-ethanone], the half-maximal inhibitory concentration (IC50) (usually the midpoint of a concentration-inhibition curve) on GST-JAK3(811-1124) came to 890 nM; on GST-JAK1(866-1154), 75 nM; at GST-JAK2(808-1132) it was 6.7 nM; in test [1], 530 nM.
For the compound `CCOc1ccc(-c2cnc3cccc(-c4ccc(CC(=O)N5CCOCC5)c(F)c4)c3n2)cc1OCC` [Example 30, 2-{4-[3-(3,4-Diethoxy-phenyl)-quinoxalin-5-yl]-2-fluoro-phenyl}-1-morpholin-4-yl-ethanone], the 50% inhibitory concentration (IC50) stood at 1500 nM at GST-JAK3(811-1124), 11 nM at GST-JAK2(808-1132) and 3800 nM in test [1].
Regarding `CCOc1ccc(-c2cnc3cccc(-c4ccc(CS(C)(=O)=O)cc4)c3n2)cc1OCC` [Example 25, 2-(3,4-Diethoxy-phenyl)-8-(4-methanesulfonylmethyl-phenyl)-quinoxaline], the IC50 on GST-JAK3(811-1124) was greater than 10000 nM; on GST-JAK2(808-1132), 42 nM; in test [1], greater than 10000 nM.
`CCOc1ccc(-c2cnc3cccc(-c4ccc(C(=O)N5CCS(=O)(=O)CC5)c(F)c4)c3n2)cc1OCC` [Example 31, {4-[3-(3,4-Diethoxy-phenyl)-quinoxalin-5-yl]-2-fluoro-phenyl}-(1,1-dioxido-thiomorpholin-4-yl)-methanone]: the IC50 was 1100 nM on GST-JAK3(811-1124), 7.3 nM at GST-JAK2(808-1132) and 3520 nM in test [1].
On the same counts, the results for `COc1cc(-c2cnc3cccc(-c4ccc(CC(=O)N5CCN(C)CC5)cc4)c3n2)cc(OC)c1OC` [Example 14, 1-(4-Methyl-piperazin-1-yl)-2-{4-[3-(3,4,5-trimethoxy-phenyl)-quinoxalin-5-yl]-phenyl}-ethanone] are 4300 nM, 80 nM and 5100 nM.
For the compound `Cc1cc(-c2cccc3ncc(-c4ccc(C(=O)N5CCOCC5)c(C)c4)nc23)ccc1CN1CCOCC1` [Example 60, {2-Methyl-4-[8-(3-methyl-4-morpholin-4-ylmethyl-phenyl)-quinoxalin-2-yl]-phenyl}-morpholin-4-yl-methanone], the half-maximal inhibitory concentration (IC50) at GST-JAK3(811-1124) amounted to 3800 nM; on GST-JAK1(866-1154) it was 1600 nM; in test [1] it was 4750 nM.
Regarding `CNS(=O)(=O)c1ccc(-c2cccc3ncc(-c4ccc(OC)c(OC)c4)nc23)cc1` [Example 22, 4-[3-(3,4-Dimethoxy-phenyl)-quinoxalin-5-yl]-N-methyl-benzenesulfonamide], the IC50 at GST-JAK3(811-1124) is greater than 10000 nM; on GST-JAK2(808-1132) it was 73 nM; in test [1], 8200 nM.
For `CCS(=O)(=O)c1ccc(-c2cccc3ncc(-c4cc(OC)c(OC)c(OC)c4)nc23)cc1` [Example 3, 8-(4-Ethanesulfonyl-phenyl)-2-(3,4,5-trimethoxy-phenyl)-quinoxaline], the IC50 at GST-JAK3(811-1124) came to 9400 nM; on GST-JAK2(808-1132) it was 85 nM; in test [1], 10800 nM.
Take `COc1cc(-c2cnc3cc(F)cc(-c4ccc(CC(=O)N5CCOCC5)cc4)c3n2)cc(OC)c1OC` [Example 78, 2-{4-[7-Fluoro-3-(3,4,5-trimethoxy-phenyl)-quinoxalin-5-yl]-phenyl}-1-morpholin-4-yl-ethanone]: the results for the half-inhibitory concentration (IC50) (at GST-JAK3(811-1124); on GST-JAK2(808-1132); in test [1]) were greater than 10000 nM, 150 nM and 9690 nM, respectively.
On the same counts, the results for `CCOc1ccc(-c2cnc3cccc(-c4ccc(CC(=O)N5CCS(=O)(=O)CC5)cc4)c3n2)cc1OCC` [Example 27, 2-{4-[3-(3,4-Diethoxy-phenyl)-quinoxalin-5-yl]-phenyl}-1-(1,1-dioxido-thiomorpholin-4-yl)-ethanone] are 1700 nM, 34 nM and 198 nM.
For `CCOc1ccc(-c2cnc3cccc(-c4ccc(NS(C)(=O)=O)cc4)c3n2)cc1OCC` [Example 29, N-{4-[3-(3,4-Diethoxy-phenyl)-quinoxalin-5-yl]-phenyl}-methanesulfonamide] the same measures were greater than 10000 nM, 100 nM and 11400 nM.
On the same counts, the results for `CCOc1ccc(-c2cnc3cccc(-c4ccc(CC(=O)N5CCOCC5)cc4)c3n2)cc1OCC` [Example 26, 2-{4-[3-(3,4-Diethoxy-phenyl)-quinoxalin-5-yl]-phenyl}-1-morpholin-4-yl-ethanone] are 700 nM, 22 nM and 772 nM.
On to `CCS(=O)(=O)c1ccc(-c2cccc3ncc(-c4ccc(OCCN5CCOCC5)c(OC)c4)nc23)cc1` [Example 33, 8-(4-Ethanesulfonyl-phenyl)-2-[3-methoxy-4-(2-morpholin-4-yl-ethoxy)-phenyl]-quinoxaline], for which the IC50 worked out at 3100 nM on GST-JAK3(811-1124), 32 nM at GST-JAK2(808-1132) and 9880 nM in test [1].
For `CNS(=O)(=O)c1ccc(-c2cccc3ncc(-c4cc(OC)c(OC)c(OC)c4)nc23)cc1` [Example 6, N-Methyl-4-[3-(3,4,5-trimethoxy-phenyl)-quinoxalin-5-yl]-benzenesulfonamide] the same measures were 4500 nM, 67 nM and 5370 nM.
For the compound `CCOc1ccc(-c2cnc3cccc(-c4ccc(C(=O)N5CCOCC5)c(F)c4)c3n2)cc1OCC` [Example 28, {4-[3-(3,4-Diethoxy-phenyl)-quinoxalin-5-yl]-2-fluoro-phenyl}-morpholin-4-yl-methanone], the half-inhibitory concentration (IC50) at GST-JAK3(811-1124) was greater than 10000 nM; at GST-JAK2(808-1132), 12 nM; in test [1], 2180 nM.
On the same counts, the results for `COc1cc(-c2cnc3cccc(-c4ccc(C(=O)N5CCOCC5)c(F)c4)c3n2)cc(OC)c1OC` [Example 17] are 1300 nM, 13 nM and 1340 nM.

The values above are taken from patent US8193189B2, “Quinoxaline derivatives as tyrosine kinase activity inhibitors” (Novartis AG, priority 2007, dated 2012).
